Results reported in the supplement of paper PMC8612539.
Converted amounts (≈) assume the structure as drawn.

Test system: Escherichia coli
Assay: minimum inhibitory concentration (MIC)
Protocol: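 Broth microdilution MIC (Sensititre BOPO7F bovine plate, CLSI methods) of 19 antimicrobials against field isolates of P. multocida, M. haemolytica, H. somni (deep nasopharyngeal swabs) and E. coli, Enterococcus spp. (rectal swabs) from weaned dairy heifers. Incubation 16-24 h at 35 C. MIC is the lowest concentration preventing visible growth. Values with <= or > lie at the tested range limits. Trimethoprim-sulfamethoxazole is given as the trimethoprim component of a 1:19 mixture.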

CS(=O)(=O)c1ccc([C@@H](O)[C@@H](CF)NC(=O)C(Cl)Cl)cc1 [Florfenicol]
Conditions	minimum inhibitory concentration [µg/mL]
isolate (source animal id): 8	4 (≈ 11.2 µM)
isolate (source animal id): 9	> 8
isolate (source animal id): 10	4 (≈ 11.2 µM)
isolate (source animal id): 11	2 (≈ 5.58 µM)
isolate (source animal id): 12	> 8
isolate (source animal id): 13	8 (≈ 22.3 µM)
isolate (source animal id): 14	> 8
isolate (source animal id): 15	> 8
isolate (source animal id): 16	> 8
isolate (source animal id): 98	2 (≈ 5.58 µM)
isolate (source animal id): 99	4 (≈ 11.2 µM)
isolate (source animal id): 100	> 8
isolate (source animal id): 101	> 8
isolate (source animal id): 102	> 8
isolate (source animal id): 103	4 (≈ 11.2 µM)
isolate (source animal id): 104	> 8
isolate (source animal id): 105	> 8
isolate (source animal id): 106	> 8
isolate (source animal id): 107	> 8
isolate (source animal id): 108	> 8
isolate (source animal id): 109	> 8
isolate (source animal id): 110	> 8
isolate (source animal id): 111	4 (≈ 11.2 µM)
isolate (source animal id): 112	> 8
isolate (source animal id): 113	> 8
isolate (source animal id): 114	4 (≈ 11.2 µM)
isolate (source animal id): 115	> 8
isolate (source animal id): 116	> 8
isolate (source animal id): 117	> 8
isolate (source animal id): 118	> 8
isolate (source animal id): 119	> 8
isolate (source animal id): 120	> 8
isolate (source animal id): 121	> 8
isolate (source animal id): 122	> 8
isolate (source animal id): 123	> 8
isolate (source animal id): 124	> 8
isolate (source animal id): 125	> 8
isolate (source animal id): 126	> 8
isolate (source animal id): 127	> 8
isolate (source animal id): 128	> 8
isolate (source animal id): 129	> 8
isolate (source animal id): 130	> 8
isolate (source animal id): 131	> 8
isolate (source animal id): 132	> 8
isolate (source animal id): 133	> 8
isolate (source animal id): 134	> 8
isolate (source animal id): 135	8 (≈ 22.3 µM)
isolate (source animal id): 136	> 8
isolate (source animal id): 137	> 8
isolate (source animal id): 138	> 8
isolate (source animal id): 139	> 8
isolate (source animal id): 140	4 (≈ 11.2 µM)
isolate (source animal id): 141	> 8
isolate (source animal id): 142	> 8
isolate (source animal id): 143	> 8
isolate (source animal id): 144	> 8
isolate (source animal id): 145	> 8
isolate (source animal id): 146	> 8
isolate (source animal id): 147	> 8
isolate (source animal id): 148	> 8
isolate (source animal id): 149	4 (≈ 11.2 µM)
isolate (source animal id): 150	> 8
isolate (source animal id): 151	> 8
isolate (source animal id): 152	> 8
isolate (source animal id): 153	> 8
isolate (source animal id): 154	> 8
isolate (source animal id): 155	> 8
isolate (source animal id): 156	> 8
isolate (source animal id): 157	> 8
isolate (source animal id): 158	> 8
isolate (source animal id): 159	> 8
isolate (source animal id): 160	> 8
isolate (source animal id): 161	> 8
isolate (source animal id): 162	> 8
isolate (source animal id): 163	> 8
isolate (source animal id): 164	> 8
isolate (source animal id): 165	> 8
isolate (source animal id): 166	> 8
isolate (source animal id): 167	8 (≈ 22.3 µM)
isolate (source animal id): 168	2 (≈ 5.58 µM)
isolate (source animal id): 169	8 (≈ 22.3 µM)
isolate (source animal id): 170	4 (≈ 11.2 µM)
isolate (source animal id): 171	4 (≈ 11.2 µM)
isolate (source animal id): 172	2 (≈ 5.58 µM)
isolate (source animal id): 173	> 8
isolate (source animal id): 174	4 (≈ 11.2 µM)
isolate (source animal id): 175	8 (≈ 22.3 µM)
isolate (source animal id): 176	4 (≈ 11.2 µM)
isolate (source animal id): 177	> 8
isolate (source animal id): 178	> 8
isolate (source animal id): 179	4 (≈ 11.2 µM)
isolate (source animal id): 180	4 (≈ 11.2 µM)
isolate (source animal id): 181	> 8
isolate (source animal id): 182	4 (≈ 11.2 µM)
isolate (source animal id): 183	> 8
isolate (source animal id): 184	4 (≈ 11.2 µM)
isolate (source animal id): 185	> 8
isolate (source animal id): 186	4 (≈ 11.2 µM)
isolate (source animal id): 187	> 8
isolate (source animal id): 188	> 8
